From patent US20250213529A1, “5-METHOXY-N.N-[…][…] THE TREATMENT OF PSYCHOMOTOR RETARDATION” (GH RESEARCH IRELAND LIMITED, priority 2022, published 2025)

Key:
[1] = tested on: patients with postpartum depression (PPD); experiment: Clinical trial in patients with postpartum depression; settings: PPD patient (n=1); for Total MADRS improvement / Total MADRS score: baseline 29; for BPRS Tension improvement: baseline 6
Procedure: The single-arm, open-label clinical trial will involve 15 adult female patients with clinically diagnosed postpartum depression (PPD).
The second dose (12 mg) will only be administered if: • a. […] The 6 mg dose was safe and well-tolerated according to the investigator, • c. Any psychoactive effects (PsE) of the prior dose have subsided, and • d. Pre-dose vital parameters and forced expiratory volume in one second (FEV1) are in normal range, or if outside of the normal range, are not clinically significant according to the investigator. • 3. Similarly, a third dose (18 mg) will only be administered if: • a. […] The 12 mg dose was safe and well-tolerated according to the investigator, and • c. Any PsE of the prior dose have subsided, and • d. Pre-dose vital parameters and forced expiratory volume in one second (FEV1) are in normal range, or if outside of the normal range, are not clinically significant according to the investigator.
The patients will be assessed for a peak psychedelic experience (based on a patient-scored visual analogue scale, the PE scale), sedation, and other endpoints after dosing. Follow-up visits are planned for Day 1, and Day 7 after the dosing day.
The following criteria must be met by all patients considered for clinical trial participation: • 1. Is female and in the age range between 18 and 45 years (inclusive) at screening. • 2. Has a body mass index (BMI) in the range of 18.5 and 35 kg/m^2 (inclusive) at screening. • 3. Meets the trial criteria for PPD as assessed by a trial psychiatrist or registered psychologist: • a. Diagnosis of Major Depressive Disorder without psychotic features, confirmed by the Mini-International Neuropsychiatric Interview (MINI), with peri-partum onset that began no earlier than gestation and no later than the first 4 weeks postpartum. • b. Has a Montgomery-Åsberg Depression Rating Scale (MADRS) total score of equal to or greater than 28 at screening and pre-dose on Day 0. • 6. […] Patients must have a negative pregnancy test at screening and on the pre-test day (Day −1). • 5. Is willing to delay start of other antidepressant or anxiety medication until after the end of the trial at Day 7 and agrees to keep any psychotherapy unchanged during the trial.
A potential patient who meets any of the following key exclusion criteria will be excluded from participation in this trial: • 1. Has, based on history, psychiatric assessment, and evaluation of the MINI, a current or prior diagnosis of bipolar disorder, a manic or hypomanic episode, a psychotic disorder, Major Depressive Disorder (MDD) or other mood disorder with psychotic features, obsessive compulsive disorder, post-traumatic stress disorder (PTSD), autism spectrum disorder, borderline personality disorder, schizophrenia, delusional disorder, paranoid personality disorder, schizoaffective disorder, clinically significant intellectual disability, or any other psychiatric comorbidity that renders the patient unsuitable for the trial according to the investigator's judgment. • 2. Has one or more first or second degree relatives with a current or previously diagnosed bipolar disorder, psychotic disorder or other mood disorder (including MDD) with psychotic features. • 3. Is in the judgement of a trial psychiatrist or registered psychologist, at significant risk for suicide based on history, psychiatric assessment, and evaluation of suicidal ideation and suicidal behaviour based on the Columbia-Suicide Severity Rating Scale (C-SSRS). • 4. Has taken anti-depressive medication within 14 days or 5 half-lives (whichever is longer) prior to dosing (exception: within the last 5 weeks in the case of fluoxetine). • 5.

[2] = tested on: Salmonella typhimurium (TA98, TA100, TA1535 and TA1537); experiment: Bacterial mutation test, Salmonella typhimurium; format: cell-based; settings: up to 5000 µg/plate; absence and presence of rat liver S-9
Excerpt: (§1) These conditions included treatments at concentrations up to […] (the maximum recommended concentration according to current regulatory guidelines), in the absence and in the presence of a rat liver metabolic activation system (S-9).

[3] = Pharmacokinetics of 5-MeO-DMT and bufotenine after inhalation; format: in vivo, human; settings: after 3 hours, 6, 12, 18 mg
[4] = tested on: Escherichia coli (WP2 uvrA pKM101); experiment: Bacterial mutation test, Escherichia coli; format: cell-based; settings: up to 5000 pg/plate; absence and presence of rat liver S-9
Excerpt: as §1

[5] = IDR 6 then 12 mg inhaled, Day 0 score 5
[6] = IDR 6 then 12 mg inhaled, Day 0 score 6
[7] = IDR 6 then 12 mg inhaled, Day 1
[8] = IDR 6 then 12 mg inhaled, Day 7, Day 0 score 5
[9] = IDR 6 then 12 mg inhaled, Day 7, Day 0 score 6
[10] = IDR 6 then 12 mg inhaled, Day 7
[11] = IDR 6 then 12 mg inhaled, Day 7 vs Day 0

Q: Which results are given for `COc1ccc2[nH]cc(CCN(C)C)c2c1` [5-MeO-DMT]?
A: Tolerability of the inhalation procedure [1]: well tolerated with no inhalation-related adverse events; Reported adverse events (cramping left abdominal pain and headache) ([1]; Day 0): mild, short-lasting and resolved spontaneously; BIMF total score improvement, percent ([1]; Day 7, from 92 to 105): 14%; ECG, safety laboratory analyses, CADSS ([1]; ECG 3 hours, laboratory 7 days, CADSS 3 hours, 1 day, 7 days): unremarkable; MADRS remission (MADRS total score equal or less than 10) ([1]; IDR 6 then 12 mg inhaled): fulfilled; MADRS response (at least 50% improvement from baseline) ([1]; IDR 6 then 12 mg inhaled): fulfilled; Onset of clinical response after administration ([1]; IDR 6 then 12 mg inhaled): ≤ 2 h; Time to clinical remission after administration ([1]; IDR 6 then 12 mg inhaled): ≤ 2 h; Durability of clinical response ([1]; IDR 6 then 12 mg inhaled, given once): sustained over the 7-day follow-up period; Total MADRS improvement ([1]; IDR 6 then 12 mg inhaled, 2 hr): 24; Total MADRS score ([1]; IDR 6 then 12 mg inhaled, 2 hr): 5; BIMF item 19 (As time goes on, I am getting better at taking care of my baby) Δ (Day 7) ([1]; IDR 6 then 12 mg inhaled, Day 0 score 0): 1; BIMF item 13 (I am taking good care of my physical needs) Δ (Day 7) ([1]; IDR 6 then 12 mg inhaled, Day 0 score 4): 1; BIMF item 5 (I am able to relax and enjoy time with my baby) Δ (Day 7) [1, 5]: 1; BIMF item 9 (I am getting enough encouragement from other people) Δ (Day 7) [1, 5]: 1; BIMF item 10 (I trust my own feelings (instincts) when it comes to taking care of my baby) Δ (Day 7) [1, 5]: 1; BIMF item 11 (I take a little time each week to do something for myself) Δ (Day 7) [1, 5]: 1; BIMF item 17 (I am able to take care of my baby and my other responsibilities) Δ (Day 7) [1, 5]: 0; BIMF item 3 (I am comfortable with the way I've chosen to feed my baby) Δ (Day 7) [1, 6]: 0; BIMF item 6 (There are people in my life that I can trust to care for my baby when I need a break) Δ (Day 7) [1, 6]: 0; BIMF item 8 (I am getting enough adult interaction) Δ (Day 7) [1, 6]: 0; BIMF item 12 (I am taking good care of my baby's physical needs) Δ (Day 7) [1, 6]: 0; BIMF item 14 (I make good decisions about my baby's health and well being) Δ (Day 7) [1, 6]: 0; BIMF item 20 (I am satisfied with the job I am doing as a new mother) Δ (Day 7) [1, 6]: −1; BIMF TOTAL Δ (Day 7) ([1]; IDR 6 then 12 mg inhaled, Day 0 score 92): 13; BPRS Tension improvement [1, 7]: 5; Total MADRS improvement [1, 7]: 29; Total MADRS score [1, 7]: 0; BIMF item 19 (As time goes on, I am getting better at taking care of my baby) score ([1]; IDR 6 then 12 mg inhaled, Day 7, Day 0 score 0): 1; BIMF item 16 (I worry about how other people judge me (as a mother)) score ([1]; IDR 6 then 12 mg inhaled, Day 7, Day 0 score 3): 5; BIMF item 13 (I am taking good care of my physical needs) score ([1]; IDR 6 then 12 mg inhaled, Day 7, Day 0 score 4): 5; BIMF item 5 (I am able to relax and enjoy time with my baby) score [1, 8]: 6; BIMF item 9 (I am getting enough encouragement from other people) score [1, 8]: 6; BIMF item 10 (I trust my own feelings (instincts) when it comes to taking care of my baby) score [1, 8]: 6; BIMF item 11 (I take a little time each week to do something for myself) score [1, 8]: 6; BIMF item 17 (I am able to take care of my baby and my other responsibilities) score [1, 8]: 5; BIMF functional domain Adjustment score ([1]; IDR 6 then 12 mg inhaled, Day 7, Day 0 score 5, maximum 12): 6; BIMF item 3 (I am comfortable with the way I've chosen to feed my baby) score [1, 9]: 6; BIMF item 6 (There are people in my life that I can trust to care for my baby when I need a break) score [1, 9]: 6; BIMF item 8 (I am getting enough adult interaction) score [1, 9]: 6; BIMF item 12 (I am taking good care of my baby's physical needs) score [1, 9]: 6; BIMF item 14 (I make good decisions about my baby's health and well being) score [1, 9]: 6; BIMF item 20 (I am satisfied with the job I am doing as a new mother) score [1, 9]: 5; BIMF functional domain Self Care score ([1]; IDR 6 then 12 mg inhaled, Day 7, Day 0 score 9, maximum 18): 13; BIMF functional domain Infant Care score ([1]; IDR 6 then 12 mg inhaled, Day 7, Day 0 score 12, maximum 12): 12; BIMF functional domain Mother-Child Interaction score ([1]; IDR 6 then 12 mg inhaled, Day 7, Day 0 score 15, maximum 18): 17; BIMF functional domain Social Support score ([1]; IDR 6 then 12 mg inhaled, Day 7, Day 0 score 17, maximum 18): 18; BIMF functional domain Management score ([1]; IDR 6 then 12 mg inhaled, Day 7, Day 0 score 28, maximum 36): 33; BIMF functional domain Psychological Well-being score ([1]; IDR 6 then 12 mg inhaled, Day 7, Day 0 score 44, maximum 60): 53; Total MADRS improvement [1, 10]: 28; Total MADRS score [1, 10]: 1; BIMF functional domain Adjustment % Improvement [1, 11]: 20.00%; BIMF functional domain Infant Care % Improvement [1, 11]: 0.00%; BIMF functional domain Management % Improvement [1, 11]: 18%; BIMF functional domain Self Care % Improvement [1, 11]: 44%; BPRS Tension improvement ([1]; IDR 6 then 12 mg inhaled, Discharge): 5; PES score (intensity of the psychedelic experience) ([1]; nominal dose of 6 mg inhaled): 17.3; Changes in vital parameters ([1]; shortly after administration): temporary, clinically non-relevant increase in heart rate and blood pressure; PES score (intensity of the psychedelic experience) ([1]; subsequent dose of 12 mg inhaled): 85.7; Induction of mutation [2]: did not induce mutation; Detectability in plasma [3]: no longer detectable; Induction of mutation [4]: did not induce mutation
